Measurements: BindingDB's records for doi:10.1021/jm00170a007 (Pfizer, 1990)

Key:
[1] = Compound was evaluated for its inhibitory activity against 5-hydroxytryptamine 1D receptor of bovine caudate using [3H]5-HT as the radioligand
[2] = inhibitory activity against 5-hydroxytryptamine 1C receptor of pig choroid plexus using [3H]mesulergine as the radioligand

Work on `FC(F)(F)c1ccc2c(c1)nc(N1CCNCC1)c1cccn12` [4-Piperazin-1-yl-7-trifluoromethyl-pyrrolo[1,2-a]quinoxaline(desmethyl-CGS-12066B)] yielded an IC50 [1] of 0.19 µM and an IC50 [2] of 10 µM.
